Paper PMC12040169 (PLOS Biology, 2025)

Assays:
[1] = test system: T1, CTL2-GFP (C. trachomatis L2/434/Bu, GFP-expressing); test: microbe, parasite or virus in culture; set-up: Intracellular C. trachomatis growth in HeLa cells, bulk GFP fluorescence relative to DMSO; details: Chlamydia trachomatis, HeLa, 28.5 h; bulk GFP, mean of 2; read-out: % of control remaining
T1 construct: L2/434/Bu, GFP-expressing
Description: MICs were calculated as described above.

in vitro = test: in vitro; set-up: Viability of infected HeLa host cells, resazurin conversion, bulk resorufin fluorescence relative to DMSO; details: human, hela cells; bulk resorufin, mean of 2
[2] = test system: T2, C. trachomatis L2/434/Bu expressing GFP (CTL2-GFP); test: microbe, parasite or virus in culture; set-up: C. trachomatis total inclusion area by high-content imaging, normalised to DMSO; details: Chlamydia trachomatis, HeLa, 28.5 h; total inclusion area; read-out: % of control remaining
T2 construct: L2/434/Bu GFP intracellular growth in HeLa cells
Outline: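 After bulk GFP and resorufin reads, fixed cells were Hoechst-stained and imaged to count chlamydial inclusions and host nuclei. Total inclusion area and number tracked bacterial growth, and nuclei number tracked host viability. MICs were derived, and 36,785 drug-like molecules were screened this way.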

| Structure (SMILES) | activity at 1 µM [1] [%] | activity at 5 µM [1] [%] | activity at 10 µM [1] [%] | viability at 28.5 h, 1 µM (in vitro) [%] | viability at 28.5 h, 5 µM (in vitro) [%] | viability at 28.5 h, 10 µM (in vitro) [%] | activity at 1 µM [2] [%] | activity at 5 µM [2] [%] | activity at 10 µM [2] [%] |
| --- | --- | --- | --- | --- | --- | --- | --- | --- | --- |
| CC(C)c1ccc(/C=C/C(=O)NCc2ccc(NS(C)(=O)=O)cc2)cc1 [CBK161512] | 138 | 96.2 | 43.8 | 101 | 104 | 94.9 | 74.8 | 59.3 | 20.9 |
| CC(C)(C)c1ccc(N(C2CCNCC2)S(=O)(=O)c2cccc(C(F)(F)F)c2)cc1 [CBK165056T] | 103 | 77.9 | 24.3 | 99.8 | 107 | 45.6 | 78 | 50.5 | 1 |
| O=C(OCCC1SC(NC2CC3C=CC2C3)=NC1=O)c1ccc(Cl)c([N+](=O)[O-])c1 (stereo not drawn) [CBK200060T] | 140 | 129 | 103 | 92.3 | 96.8 | 88.4 | 132 | 108 | 68.7 |
| O=[N+]([O-])c1ccc(-n2cnc3ccccc32)c([N+](=O)[O-])c1 [CBK261120] | 104 | 40.1 | 0 | 107 | 88.2 | 111 | 86.4 | 46.4 | 2.35 |
| CC1=C(C)C(=NNC(N)=S)C(C)=C(C)C1=NNC(N)=S [CBK261262] | 116 | 39.1 | 12.7 | 90.9 | 90.8 | 90.6 | 96.7 | 31.5 | 17.1 |
| COc1nccnc1NS(=O)(=O)c1ccc(Nc2c([N+](=O)[O-])cc([N+](=O)[O-])c3nonc23)cc1 [CBK261441] | 33.2 | 18 | 10.6 | 90.8 | 95.9 | 94.2 | 42.6 | 28.1 | 24.2 |
| Cc1noc(NS(=O)(=O)c2ccc(NC(=O)COc3ccc(Cl)cc3Cl)cc2)c1C [CBK262142] | 103 | 26.5 | 14.3 | 95.1 | 97.3 | 100 | 102 | 49.8 | 24.6 |
| COc1ccc(-c2csc(/C(C#N)=C/Nc3ccc(S(=O)(=O)Nc4nccs4)cc3)n2)cc1 [CBK262374] | 146 | 131 | 113 | 99.9 | 95.6 | 96.2 | 134 | 95 | 96.5 |
| CCc1nnc(NS(=O)(=O)c2ccc(N/C=C3\C(=O)N(c4ccc(Cl)cc4)N=C3C)cc2)s1 [CBK262416] | 91.1 | 26.1 | 13.2 | 91.9 | 94.3 | 93.3 | 102 | 50.5 | 27 |
| Cc1cc(NS(=O)(=O)c2ccc(Nc3nc(-c4cccs4)cs3)cc2)no1 [CBK262504] | 96.7 | 25.1 | 15.9 | 86.5 | 92.2 | 88.4 | 112 | 45.8 | 19.5 |
| O=C(NCCCn1ccnc1)c1cc(-c2ccc(Br)cc2)nc2ccccc12 [CBK262645] | 138 | 87.8 | 31.9 | 103 | 107 | 94.9 | 126 | 95.8 | 45.4 |
| COc1cc(NS(=O)(=O)c2ccc(N/C=C3/CCc4ccccc4C3=O)cc2)nc(OC)n1 [CBK263376] | 108 | 26 | 22.7 | 101 | 99.1 | 78.6 | 83.5 | 48.7 | 12.5 |
| Cc1cc(OCC(=O)Nc2ccc(S(=O)(=O)Nc3onc(C)c3C)cc2)cc(C)c1Cl [CBK263491] | 59.3 | 15.2 | 5.2 | 103 | 100 | 117 | 55.4 | 25.5 | 11.8 |
| CCOC(=O)c1c(C)n(-c2ccc(C)cc2)c2ccc(O)c(CN(C)C)c12 [CBK263499C] | 124 | 104 | 38.4 | 101 | 93.4 | 90.3 | 89 | 95.9 | 12.4 |
| CN(C)CCNc1nc(-c2ccc(Cl)cc2)nc2ccccc12 [CBK263942] | 111 | 85.1 | 47.9 | 94.8 | 97 | 94.4 | 64.3 | 38.6 | 5.67 |
| Cc1noc(NS(=O)(=O)c2ccc(NC(=O)CCN3C(=O)c4ccccc4C3=O)cc2)c1C [CBK264091] | 106 | 40.3 | 28.9 | 92.8 | 92.8 | 91.3 | 99.8 | 67.5 | 32.7 |
| O=C(NCc1cccnc1)/C(=C/c1ccc(-c2cccc(Cl)c2)o1)S(=O)(=O)c1ccccc1 [CBK264508] | 101 | 45 | 8.14 | 107 | 100 | 97.8 | 78.5 | 44 | 10.3 |
| CC(C)(C)CC(C)(C)NC(=S)Nc1ccc2nc(-c3ccccn3)c(-c3ccccn3)nc2c1 [CBK265118] | 95.9 | 66.8 | 47.2 | 110 | 106 | 98 | 82.1 | 31.9 | 16.8 |
| Cc1noc(NS(=O)(=O)c2ccc(NC(=O)/C=C/c3ccc(C(C)C)cc3)cc2)c1C [CBK265430] | 66.5 | 26.3 | 11.6 | 108 | 102 | 106 | 69.9 | 23.1 | 22.2 |
| O=C(NCCCn1ccnc1)c1cc(-c2cccc(Br)c2)nc2ccccc12 [CBK265476] | 88.9 | 13 | 0 | 108 | 115 | 116 | 76.4 | 28.5 | 3.75 |
| Cn1cc(C(c2ccc(OCC(=O)O)cc2)c2cn(C)c3ccccc23)c2ccccc21 [CBK266403] | 91 | 23.4 | 9.15 | 113 | 111 | 115 | 87.5 | 36 | 2.98 |
| COc1ccc(S(=O)(=O)Nc2ccc(S(=O)(=O)Nc3nccs3)cc2)c([N+](=O)[O-])c1 [CBK266801] | 13.9 | 4.96 | 0 | 110 | 123 | 119 | 26.3 | 5.01 | 1.27 |
| O=S(=O)(Nc1ncccn1)c1ccc(NC(=S)Nc2ccc3c(c2)OCO3)cc1 [CBK267046] | 54.3 | 10.7 | 12.9 | 114 | 121 | 119 | 88.8 | 21.2 | 18.3 |
| N=C(N)Nc1nc(-c2ccccc2)c2cc(F)ccc2n1 [CBK267350] | 93.6 | 64.3 | 16.8 | 107 | 111 | 105 | 90.4 | 64.6 | 12.8 |
| Cc1ccc(S(=O)(=O)Nc2ccc(S(=O)(=O)Nc3nccs3)cc2)c([N+](=O)[O-])c1 [CBK267410] | 17.1 | 7.21 | 1.76 | 110 | 97.6 | 98.2 | 23 | 5.7 | 1.86 |
